The results in this text go back to ChEMBL document CHEMBL5236544, “Furazans in Medicinal Chemistry” (J Med Chem, 2021).

For data set [1], the target named is T1, Amyloid-beta precursor protein (Homo sapiens, UniProt P05067). The data set is described as follows: Inhibition of amyloid beta (unknown origin) aggregation at 5 uM relative to control.
Data set [2] deals with Respiratory syncytial virus. The data set can be described thus: Antiviral activity against RSV. It is filed as functional, organism-based. Particulars: human respiratory syncytial virus.
The target of data set [3] is Aldo-keto reductase family 1 member C3 (Homo sapiens, UniProt P42330). The data set can be described thus: Inhibition of AKR1C3 (unknown origin).
A further data set deals with LNCaP. The data set is described as follows: Antiproliferative activity against human LNCaP cells assessed as reduction in cell viability. It is filed as functional, cell-based.
In data set [4] the test system is HCT-116. The data set can be described thus: cells. The settings on record: Homo sapiens.
Data set [5] is described as follows: Dissociation constant, pKa of compound. It is filed as physicochemical.
The test system of a further data set is HT-29. The data set can be described thus: cells. Particulars: Homo sapiens.
The target of data set [6] is Prostaglandin G/H synthase 1 (Homo sapiens, UniProt P23219). The data set is described as follows: Inhibition of COX1 (unknown origin).
Data set [7] can be described thus: Lipophilicity, log D of compound at pH 7.4. The settings on record: buffer. It counts as physicochemical.
The target in data set [8] is Prostaglandin G/H synthase 2 (Homo sapiens, UniProt P35354). The data set is described as follows: Inhibition of COX2 (unknown origin).
Another data set addresses Histamine H2 receptor (Homo sapiens, UniProt P25021). The data set can be described thus: Antagonist activity at histamine H2 receptor (unknown origin) assessed as inhibition constant.
A further data set deals with Daudi. The data set is described as follows: Antiproliferative activity against human Daudi assessed as inhibition of cell proliferation by MTT assay. It counts as functional, cell-based. A general note: Formazan colour is commonly taken as a measure of viable cells.
The next data set deals with HL-60. The data set can be described thus: Antiproliferative activity against (unknown origin) HL-60 assessed as inhibition of cell proliferation by MTT assay. It counts as functional, cell-based. The settings on record: Homo sapiens.
The next data set addresses c-Myc/c-Max (Homo sapiens, UniProt P01106+P61244). The data set is described as follows: Inhibition of Myc/Max (unknown origin). It counts as protein assay.
The next data set concerns HeLa. The data set can be described thus: cells. Particulars: Homo sapiens.
Data set [9] is described as follows: Stability in rat assessed as intrinsic clearance. It is filed as ADME. Particulars: CLH.
Data set [10] relates to HCT-116. The data set is described as follows: Antiproliferative activity against human HCT-116 cells assessed as reduction in cell viability by MTT assay. It is filed as functional, cell-based.
Another data set relates to Jurkat. The data set can be described thus: Antiproliferative activity against human Jurkat cells assessed as reduction in cell viability measured after 48 hrs by MTT assay. It counts as functional, cell-based.
The nature of data set [11]: Half life in mouse. The settings on record: in vivo. It is filed as ADME, organism-based.
The next data set deals with K562. The data set can be described thus: Antiproliferative activity against human K562 cells assessed as reduction in cell viability measured after 48 hrs by MTT assay. The settings on record: K562, 48 h. It counts as functional, cell-based.
The next data set deals with HEL. The data set is described as follows: Antiproliferative activity against human HEL cells assessed as reduction in cell viability measured after 48 hrs by MTT assay. It is filed as functional, cell-based.
Data set [12] deals with Cyclin-dependent kinase inhibitor 1 (Homo sapiens, UniProt P38936). The data set can be described thus: Inhibition of p21 (unknown origin).
The species entered for the next data set is Rattus norvegicus. The data set is described as follows: Anti-inflammatory activity against ovalbumin induced lung inflammatory rat model assessed as reduction in eosinophil influx. It counts as functional.
The target of data set [13] is 3',5'-cyclic-AMP phosphodiesterase 4D (Homo sapiens, UniProt Q08499). The data set can be described thus: Inhibition of human recombinant PDE4D.
The species named for a further data set is Mus musculus. The data set is described as follows: Anti-inflammatory activity in LPS-induced inflammatory mouse model assessed as reduction in neutrophil influx. It counts as functional.
Data set [14] can be described thus: Anti-inflammatory activity against human PBMCs assessed as reduction in LPS-induced TNF-alpha release by ELISA analysis. It counts as functional, cell-based. Particulars: PBMC. (In general: ELISA stands for enzyme-linked immunosorbent assay.)
Data set [15] can be described thus: Inhibition of p70S6K (unknown origin). Details: species or system Homo sapiens.
Data set [16] can be described thus: Inhibition of GSK3 (unknown origin). Details: species or system Homo sapiens.
The target of data set [17] is Ribosomal protein S6 kinase alpha-1 (Homo sapiens, UniProt Q15418). The data set can be described thus: Inhibition of RSK1 (unknown origin).
Data set [18] concerns the target T1, Amyloid-beta precursor protein. The data set is described as follows: Inhibition of amyloid beta 42 in human HEK293 cells. It is filed as cell-based.
Data set [19] can be described thus: Inhibition of HIF (unknown origin). Details: species or system Homo sapiens.
The nature of a further data set: physchem. Particulars: octanol/water.
Data set [20] in a line: Binding affinity to human wild type HIF2alpha assessed as dissociation constant by calorimetry assay.
Another data set deals with Influenza A virus. The data set is described as follows: Antiviral activity against influenza A H1N1. It is filed as functional, organism-based.
Data set [21] has as its target T1, Amyloid-beta precursor protein. The data set is described as follows: Inhibition of amyloid beta (unknown origin) aggregation at 10 uM relative to control.
Data set [22] in a line: Inhibition of ROMK (unknown origin). Details: species or system Homo sapiens.

T1 sequence (P05067 whole entry): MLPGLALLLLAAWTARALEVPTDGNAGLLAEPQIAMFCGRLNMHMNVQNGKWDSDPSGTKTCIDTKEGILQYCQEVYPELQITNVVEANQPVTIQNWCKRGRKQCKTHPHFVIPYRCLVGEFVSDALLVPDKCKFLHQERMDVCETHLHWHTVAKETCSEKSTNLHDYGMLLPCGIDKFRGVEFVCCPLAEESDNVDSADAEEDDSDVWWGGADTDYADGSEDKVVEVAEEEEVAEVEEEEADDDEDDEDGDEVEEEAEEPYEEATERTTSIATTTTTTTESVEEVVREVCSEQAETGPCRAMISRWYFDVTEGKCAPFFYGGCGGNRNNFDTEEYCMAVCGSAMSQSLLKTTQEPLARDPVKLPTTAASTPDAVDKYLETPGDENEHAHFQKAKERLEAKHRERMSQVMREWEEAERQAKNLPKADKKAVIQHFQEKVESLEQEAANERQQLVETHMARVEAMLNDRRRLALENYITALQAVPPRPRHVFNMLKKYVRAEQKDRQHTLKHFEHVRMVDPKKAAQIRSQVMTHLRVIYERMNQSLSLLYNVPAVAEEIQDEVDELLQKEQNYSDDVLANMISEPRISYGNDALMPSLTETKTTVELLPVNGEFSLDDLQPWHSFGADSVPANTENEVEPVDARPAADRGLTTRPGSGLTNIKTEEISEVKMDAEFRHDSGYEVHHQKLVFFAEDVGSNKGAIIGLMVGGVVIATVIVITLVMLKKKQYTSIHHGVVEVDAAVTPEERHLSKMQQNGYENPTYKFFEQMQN
Sequence of Cyclin-dependent kinase inhibitor 1 (P38936 whole entry): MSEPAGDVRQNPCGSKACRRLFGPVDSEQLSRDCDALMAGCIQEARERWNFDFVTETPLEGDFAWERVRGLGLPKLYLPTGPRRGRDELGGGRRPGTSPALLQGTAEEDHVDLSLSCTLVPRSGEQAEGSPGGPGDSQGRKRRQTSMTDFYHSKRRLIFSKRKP
Sequence of c-Myc/c-Max (P01106 whole entry): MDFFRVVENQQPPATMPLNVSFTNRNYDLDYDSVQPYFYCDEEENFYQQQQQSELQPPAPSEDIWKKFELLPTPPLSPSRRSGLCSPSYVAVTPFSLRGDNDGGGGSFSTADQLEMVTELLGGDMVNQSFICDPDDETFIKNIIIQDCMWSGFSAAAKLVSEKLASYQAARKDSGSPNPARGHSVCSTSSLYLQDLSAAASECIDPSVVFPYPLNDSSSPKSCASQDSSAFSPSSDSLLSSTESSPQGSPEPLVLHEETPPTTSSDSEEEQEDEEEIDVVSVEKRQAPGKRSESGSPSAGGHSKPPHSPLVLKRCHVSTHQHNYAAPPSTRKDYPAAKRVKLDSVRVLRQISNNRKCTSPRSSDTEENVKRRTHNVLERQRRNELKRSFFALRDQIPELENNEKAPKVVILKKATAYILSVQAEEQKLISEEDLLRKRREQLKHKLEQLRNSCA
Sequence of c-Myc/c-Max (P61244 whole entry): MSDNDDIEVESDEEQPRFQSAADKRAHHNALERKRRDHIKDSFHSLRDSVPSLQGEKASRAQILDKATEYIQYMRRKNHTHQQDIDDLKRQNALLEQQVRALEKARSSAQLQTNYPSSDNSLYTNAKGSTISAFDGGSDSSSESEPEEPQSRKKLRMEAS
Sequence of Prostaglandin G/H synthase 2 (P35354 whole entry): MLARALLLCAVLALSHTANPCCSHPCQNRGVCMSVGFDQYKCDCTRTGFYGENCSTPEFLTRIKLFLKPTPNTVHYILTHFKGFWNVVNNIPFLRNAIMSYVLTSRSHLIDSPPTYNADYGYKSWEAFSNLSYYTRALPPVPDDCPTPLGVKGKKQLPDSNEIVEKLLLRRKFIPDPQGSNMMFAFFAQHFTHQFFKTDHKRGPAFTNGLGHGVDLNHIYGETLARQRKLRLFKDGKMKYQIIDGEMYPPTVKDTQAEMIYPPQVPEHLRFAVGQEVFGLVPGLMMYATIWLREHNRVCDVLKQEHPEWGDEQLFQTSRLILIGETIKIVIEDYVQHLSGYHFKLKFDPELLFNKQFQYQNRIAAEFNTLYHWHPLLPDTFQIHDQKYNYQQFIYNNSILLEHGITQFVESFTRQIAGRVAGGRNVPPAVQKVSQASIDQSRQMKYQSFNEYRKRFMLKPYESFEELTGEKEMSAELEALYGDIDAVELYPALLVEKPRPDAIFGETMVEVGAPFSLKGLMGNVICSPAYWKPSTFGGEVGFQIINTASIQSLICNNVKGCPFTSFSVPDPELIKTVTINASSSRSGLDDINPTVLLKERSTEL
Sequence of Prostaglandin G/H synthase 1 (P23219 whole entry): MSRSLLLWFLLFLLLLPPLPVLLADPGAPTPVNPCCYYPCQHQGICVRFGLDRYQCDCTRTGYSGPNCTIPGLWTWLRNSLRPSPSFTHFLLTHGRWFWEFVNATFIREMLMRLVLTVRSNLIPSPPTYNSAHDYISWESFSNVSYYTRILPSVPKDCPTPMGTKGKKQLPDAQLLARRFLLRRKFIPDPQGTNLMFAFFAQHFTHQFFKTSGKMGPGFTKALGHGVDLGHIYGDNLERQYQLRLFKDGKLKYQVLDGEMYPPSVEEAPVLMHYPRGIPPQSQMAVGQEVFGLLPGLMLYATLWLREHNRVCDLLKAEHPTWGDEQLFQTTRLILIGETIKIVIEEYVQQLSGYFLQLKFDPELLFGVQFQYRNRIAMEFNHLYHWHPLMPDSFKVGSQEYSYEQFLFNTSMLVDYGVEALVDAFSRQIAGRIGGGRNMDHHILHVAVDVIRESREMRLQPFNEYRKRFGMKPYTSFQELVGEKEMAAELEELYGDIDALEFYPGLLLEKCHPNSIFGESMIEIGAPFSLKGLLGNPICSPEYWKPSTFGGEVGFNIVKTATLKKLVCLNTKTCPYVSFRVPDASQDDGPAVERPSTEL
Sequence of Histamine H2 receptor (P25021 whole entry): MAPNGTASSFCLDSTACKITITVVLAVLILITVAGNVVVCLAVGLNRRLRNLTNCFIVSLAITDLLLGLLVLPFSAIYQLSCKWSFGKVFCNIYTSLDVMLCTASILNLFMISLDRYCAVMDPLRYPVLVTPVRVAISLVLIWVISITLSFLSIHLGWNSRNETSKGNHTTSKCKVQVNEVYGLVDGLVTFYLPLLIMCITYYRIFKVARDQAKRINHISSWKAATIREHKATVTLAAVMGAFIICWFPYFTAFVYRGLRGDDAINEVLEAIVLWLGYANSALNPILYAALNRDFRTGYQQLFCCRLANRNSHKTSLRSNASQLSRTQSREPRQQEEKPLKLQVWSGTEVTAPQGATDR
Sequence of Aldo-keto reductase family 1 member C3 (P42330 whole entry): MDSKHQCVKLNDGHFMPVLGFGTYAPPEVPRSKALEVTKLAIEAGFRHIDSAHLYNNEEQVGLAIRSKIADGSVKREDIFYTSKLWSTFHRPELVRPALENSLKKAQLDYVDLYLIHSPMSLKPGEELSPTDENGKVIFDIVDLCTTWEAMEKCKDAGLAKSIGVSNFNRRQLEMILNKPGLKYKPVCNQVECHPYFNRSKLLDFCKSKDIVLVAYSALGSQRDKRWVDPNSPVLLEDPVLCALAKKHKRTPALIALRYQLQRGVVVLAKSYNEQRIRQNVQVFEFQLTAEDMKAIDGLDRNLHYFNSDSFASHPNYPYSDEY
Sequence of Ribosomal protein S6 kinase alpha-1 (Q15418 whole entry): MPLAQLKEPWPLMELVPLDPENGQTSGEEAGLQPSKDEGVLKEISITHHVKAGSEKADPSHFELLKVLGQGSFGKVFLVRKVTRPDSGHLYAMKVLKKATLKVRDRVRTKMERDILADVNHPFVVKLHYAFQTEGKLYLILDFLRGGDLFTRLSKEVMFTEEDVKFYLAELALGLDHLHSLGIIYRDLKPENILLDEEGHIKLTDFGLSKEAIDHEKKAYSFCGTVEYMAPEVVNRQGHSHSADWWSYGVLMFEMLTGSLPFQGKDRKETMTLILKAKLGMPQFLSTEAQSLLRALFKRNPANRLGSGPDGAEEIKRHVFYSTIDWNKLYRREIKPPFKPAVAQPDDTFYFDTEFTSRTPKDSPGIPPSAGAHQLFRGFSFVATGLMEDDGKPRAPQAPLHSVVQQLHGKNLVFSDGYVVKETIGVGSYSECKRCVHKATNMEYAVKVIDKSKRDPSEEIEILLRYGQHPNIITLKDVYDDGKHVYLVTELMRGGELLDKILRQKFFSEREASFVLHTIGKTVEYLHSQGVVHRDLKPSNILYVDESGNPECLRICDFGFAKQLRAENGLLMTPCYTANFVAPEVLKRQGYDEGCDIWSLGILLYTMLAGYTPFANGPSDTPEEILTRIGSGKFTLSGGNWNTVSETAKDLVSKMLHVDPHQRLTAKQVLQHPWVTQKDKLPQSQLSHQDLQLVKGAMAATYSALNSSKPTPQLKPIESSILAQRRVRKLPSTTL
Sequence of 3',5'-cyclic-AMP phosphodiesterase 4D (Q08499 whole entry): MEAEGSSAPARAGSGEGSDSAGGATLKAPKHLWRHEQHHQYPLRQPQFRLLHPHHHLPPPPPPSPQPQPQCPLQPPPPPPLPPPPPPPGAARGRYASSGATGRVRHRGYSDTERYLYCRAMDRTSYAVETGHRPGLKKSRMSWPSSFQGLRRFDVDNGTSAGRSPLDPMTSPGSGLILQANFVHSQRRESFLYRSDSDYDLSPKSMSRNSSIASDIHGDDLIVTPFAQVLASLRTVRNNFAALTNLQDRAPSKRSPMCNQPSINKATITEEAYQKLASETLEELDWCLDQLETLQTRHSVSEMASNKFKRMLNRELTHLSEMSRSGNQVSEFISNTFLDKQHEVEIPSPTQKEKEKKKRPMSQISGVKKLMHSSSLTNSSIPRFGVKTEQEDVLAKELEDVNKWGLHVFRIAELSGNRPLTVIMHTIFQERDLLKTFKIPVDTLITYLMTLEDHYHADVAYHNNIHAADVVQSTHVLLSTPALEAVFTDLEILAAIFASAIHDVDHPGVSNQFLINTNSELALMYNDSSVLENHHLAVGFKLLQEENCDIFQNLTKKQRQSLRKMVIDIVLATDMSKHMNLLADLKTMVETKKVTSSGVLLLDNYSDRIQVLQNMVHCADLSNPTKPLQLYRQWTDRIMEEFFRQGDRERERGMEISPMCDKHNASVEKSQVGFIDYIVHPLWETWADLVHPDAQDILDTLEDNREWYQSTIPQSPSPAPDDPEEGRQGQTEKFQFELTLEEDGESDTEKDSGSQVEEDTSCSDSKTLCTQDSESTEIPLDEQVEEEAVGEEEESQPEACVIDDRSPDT
Description for HT-29: Antiproliferative activity against human HT-29 cells assessed as reduction in cell viability
Description for HeLa: Antiproliferative activity against human HeLa cells assessed as reduction in cell viability
Description for physchem: Lipophilicity, log P of the compound

By inhibition is commonly meant how much of the control response was suppressed. `OC(c1cccc(-c2cc(NCc3ccccc3)c3nonc3c2)c1)C(F)(F)F` (configuration not stated) yielded an inhibition in data set [1] of 57.1%.
Usually IC50 stands for the concentration that inhibits the measured activity by half. With `O=[N+]([O-])c1ccc(Nc2ccc(Cl)cc2)c2nonc12`, the IC50 in data set [2] came to 2000 nM.
In general, EC50 refers to the concentration needed to bring the measured effect to its halfway point. Usually pKa stands for the pH at which an ionisable group is half protonated. A lower pKa goes with a stronger acid or weaker base. As a reminder, the logD is lipophilicity at a set pH, counting ionised and neutral species. Low readings indicate a more hydrophilic compound, high ones a more lipophilic compound. Take `COc1ccc2c(c1)c(Cc1nonc1O)c(C)n2C(=O)c1ccccc1`: the IC50 was 300 nM in [3], more than 100000 nM in data set [6] and more than 100000 nM in data set [8]. In addition, the figures for the EC50 in the data set with LNCaP, in the data set on HCT-116 [4] and in the data set with HT-29 were 141000 nM, 78900 nM and 135000 nM, respectively. For the same molecule, the pKa in data set [5] came out at 4.09. For the same molecule, the logD in data set [7] was found to be 1.8.
One may read the Ki as the equilibrium dissociation constant of an inhibitor or competing ligand from its target. Take `CN(C)Cc1ccc(CSCCNc2nonc2N)o1`: on Histamine H2 receptor, the Ki turned out to be 26 nM.
For `O=C(O)c1ccc(-c2ccccc2Nc2ccc([N+](=O)[O-])c3nonc23)cc1`, the concentration giving a half-maximal response (EC50) was 56000 nM with Daudi and 148000 nM in the data set with HL-60. This molecule also came in with an IC50 on c-Myc/c-Max of 33000 nM.
On the same counts, the results for `O=C(Oc1ccccc1)c1ccccc1Nc1ccc([N+](=O)[O-])c2nonc12` are 3100 nM, 9600 nM and 40000 nM.
What is called CLint scaled is the capacity of the preparation to metabolise the compound, expressed as a volume cleared per time. As to `Nc1nonc1C(=NO)Nc1ccc(F)c(Cl)c1`, the EC50 in the data set with HeLa worked out at 19 nM. Also, in data set [9], the CLint scaled was more than 36.7 mL/min/kg.
`O=C(Nc1ccc(C(F)(F)F)cc1)Nc1nonc1-c1ccc(Cl)cc1`: the EC50 in the data set on HCT-116 [10] turned out to be 2500 nM.
In general, half-life refers to the time in which the quantity being followed falls by half. Read a low half-life as fast loss. As to `CC1(C)CC[C@]2(C(=O)O)CC[C@]3(C)C(=CC[C@@H]4[C@@]5(C)CC[C@H](O)C(C)(C)[C@@H]5CC[C@]43C)[C@@H]2C1` [OLEANOLIC_ACID], the EC50 in the data set with Jurkat is more than 1000 nM; in the data set with K562, more than 100000 nM; with HEL, more than 1000 nM. This molecule gave a half-life in [11] of 0.7 h.
`CC(=O)c1cccc(CC2CCCc3c2[nH]c2ccc(C)cc32)c1` (configuration not stated) returned an IC50 in [12] of 170 nM.
Consider `CC1(C)CC[C@]2(C(=O)O)CC[C@]3(C)C(=CC[C@@H]4[C@@]5(C)Cc6nonc6C(C)(C)[C@@H]5CC[C@]43C)[C@@H]2C1`, for which the values for the EC50 in the data set on Jurkat, with K562 and in the data set with HEL were 290 nM, 780 nM and more than 210 nM, respectively. Also, the half-life in [11] is 1.5 h.
In general, ED50 refers to the dose that gives a 50% effect, or the effect in half of the subjects. `O=C(O)[C@H]1CC[C@H](c2cc3cccnc3c(-c3cccc(F)c3)n2)CC1`: the ED50 turned out to be 0.0034 µmol/kg in the data set filed under Rattus norvegicus and 0.032 µmol/kg in the data set filed under Mus musculus. For the same molecule, in data set [13], the IC50 was 41 nM. The EC50 in [14] turned out to be 126 nM.
On to `CCOC(=O)c1ccc(Nc2nc3nonc3nc2Nc2cccc(C)c2C)cc1`, for which the IC50 in data set [12] is 760 nM.
As to `CCn1c(-c2nonc2N)nc2cnccc21`, the IC50 in data set [15] was 70 nM; in [16], 33 nM; in data set [17] it was 24 nM.
In turn, `CC(C)CC(C(=O)O)c1cc(Cl)c(OCC2CC2)c(-c2ccc3nonc3c2)c1` (configuration not stated) gave an EC50 in data set [18] of 270 nM.
A word on the logP: it is a log measure of how a compound divides between an organic and an aqueous phase. Higher therefore signals higher lipophilicity. Usually Kd stands for the concentration at which binding is half-saturated. Turning to `Fc1cc(Br)cc([C@@H]2C[C@H](c3cccc(Br)c3)n3nnnc3N2)c1`, it took 43000 nM to reach half-maximal inhibition in [19] (IC50). For the same molecule, the logP in “physchem” amounted to 4.4. Further, the Kd in data set [20] amounted to 23 nM.
For `O=[N+]([O-])c1ccc(Sc2ccc(F)cc2)c2nonc12`, the IC50 in data set [2] was 7000 nM; in the data set on Influenza A virus, 5000 nM.
In the case of `O=C(Nc1nonc1-c1ccc(Cl)cc1)c1ccc(C(F)(F)F)cc1`, in the data set with HCT-116 [10], the EC50 was determined as 1300 nM.
`CC(O)c1cccc(-c2cc(NCc3ccccc3)c3nonc3c2)c1` (configuration not stated) had an inhibition in data set [21] of 66.3%.
With `O=[N+]([O-])c1ccc(Sc2ccc(-n3cc(CO)nn3)cc2)c2nonc12`, the IC50 in the data set on Influenza A virus was found to be 1000 nM.
`O=C1OCc2cc(CCN3CCN(CCc4ccc5nonc5c4)CC3)ccc21`: in data set [22], the IC50 was 2200 nM.
